Test system: adults with moderate to severe atopic dermatitis
Experiment: Phase 2b study in atopic dermatitis (Example 8): treatment emergent adverse events
Type: in vivo, human
Excerpt: The exploratory objectives are to: • Evaluate pharmacokinetic (PK) and pharmacodynamic parameters relevant to AD • Evaluate the effect of orismilast on the pulmonary status and course of the disease in patients with asthma Primary Endpoint • Percentage change in Eczema Area and Severity Index (EASI) score from Baseline at Week 16. […]

SMILES: O=C(Cc1c(Cl)c[n+]([O-])cc1Cl)c1ccc(OC(F)F)c2c1OC1(CCS(=O)(=O)CC1)O2 [orismilast, 2-(3,5-dichloro-1-oxidopyridin-1-ium-4-yl)-1-[7-(difluoromethoxy)-1′,1′-dioxospiro[1,3-benzodioxole-2,4′-thiane]-4-yl]ethanone]
- patients experiencing any Treatment Emergent Adverse Event (TEAE) through Week 16 (20 mg BID): 76%
- patients experiencing any Treatment Emergent Adverse Event (TEAE) through Week 16 (30 mg BID): 79%
- patients experiencing any Treatment Emergent Adverse Event (TEAE) through Week 16 (40 mg BID): 86%
